# How the values were obtained:
# Carbonic anhydrase 9 = Carbonic anhydrase 9 (Homo sapiens, UniProt Q16790)
# Description: Inhibition of human carbonic anhydrase 9 by stopped-flow CO2 hydration assay
# HeLa = assay: Cytotoxicity against human HeLa cells after 72 hrs by MTT assay; type: functional, cell-based
# HCT-116 = assay: Cytotoxicity against human HCT116 cells after 72 hrs by MTT assay; type: functional, cell-based; conditions: HCT-116, 72 h
# MCF7 = assay: Cytotoxicity against human MCF7 cells after 72 hrs by MTT assay; type: functional, cell-based; conditions: MCF7, 72 h
# Carbonic anhydrase 1 = Carbonic anhydrase 1 (Homo sapiens, UniProt P00915)
# Sequence of Carbonic anhydrase 1 (P00915 whole entry): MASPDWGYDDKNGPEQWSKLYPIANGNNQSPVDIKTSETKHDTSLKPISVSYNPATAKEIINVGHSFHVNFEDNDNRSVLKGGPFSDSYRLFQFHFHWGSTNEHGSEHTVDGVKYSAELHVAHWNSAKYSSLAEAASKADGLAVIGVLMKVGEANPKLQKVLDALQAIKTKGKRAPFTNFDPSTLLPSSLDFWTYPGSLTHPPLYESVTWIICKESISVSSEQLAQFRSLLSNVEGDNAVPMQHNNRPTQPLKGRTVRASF
# Description: Inhibition of human carbonic anhydrase 1 by stopped-flow CO2 hydration assay
# Carbonic anhydrase 2 = Carbonic anhydrase 2 (Homo sapiens, UniProt P00918)
# Description: Inhibition of human carbonic anhydrase 2 by stopped-flow CO2 hydration assay
# HaCaT = assay: Cytotoxicity against human HaCaT cells after 72 hrs by MTT assay; type: cell-based
SMILES,Ki (Carbonic anhydrase 9),IC50 (HeLa),IC50 (HCT-116),IC50 (MCF7),Ki (Carbonic anhydrase 1),Ki (Carbonic anhydrase 2),IC50 (HaCaT)
N/C(=N\S(=O)(=O)c1ccccc1SCc1cccc2ccccc12)NNc1nc(Cl)nc(NCc2ccc(S(N)(=O)=O)cc2)n1,383 nM,> 100000 nM,> 100000 nM,> 100000 nM,2140 nM,187 nM,–
N/C(=N\S(=O)(=O)c1ccccc1SCc1ccc(C(F)(F)F)cc1)NNc1nc(Cl)nc(NCc2ccc(S(N)(=O)=O)cc2)n1,47.1 nM,> 100000 nM,> 100000 nM,> 100000 nM,514 nM,89.5 nM,–
N/C(=N\S(=O)(=O)c1ccccc1SCc1cccc2ccccc12)NNc1nc(Cl)nc(Nc2ccc(S(N)(=O)=O)cc2)n1,41.1 nM,17000 nM,–,–,733 nM,161 nM,61000 nM
N/C(=N\S(=O)(=O)c1ccccc1SCc1ccccc1)NNc1nc(Cl)nc(NCc2ccc(S(N)(=O)=O)cc2)n1,46.9 nM,> 100000 nM,> 100000 nM,> 100000 nM,294 nM,38.8 nM,–
N/C(=N\S(=O)(=O)c1ccccc1SCc1cccc(C(F)(F)F)c1)NNc1nc(Cl)nc(Nc2cccc(S(N)(=O)=O)c2)n1,3340 nM,> 100000 nM,> 100000 nM,> 100000 nM,337 nM,9.3 nM,–
N/C(=N\S(=O)(=O)c1ccccc1SCc1cccc(C(F)(F)F)c1)NNc1nc(Cl)nc(NCc2ccc(S(N)(=O)=O)cc2)n1,43.6 nM,> 100000 nM,> 100000 nM,> 100000 nM,219 nM,5.4 nM,–
N/C(=N\S(=O)(=O)c1ccccc1SCc1ccc(C(F)(F)F)cc1)NNc1nc(Cl)nc(Nc2ccc(S(N)(=O)=O)cc2)n1,42.9 nM,> 100000 nM,> 100000 nM,> 100000 nM,386 nM,22 nM,–
N/C(=N\S(=O)(=O)c1ccccc1SCc1cccc(C(F)(F)F)c1)NNc1nc(Cl)nc(Nc2ccc(S(N)(=O)=O)cc2)n1,37.1 nM,> 100000 nM,> 100000 nM,> 100000 nM,148 nM,7.4 nM,–
N/C(=N\S(=O)(=O)c1ccccc1SCc1ccccc1)NNc1nc(Cl)nc(Nc2cccc(S(N)(=O)=O)c2)n1,3970 nM,> 100000 nM,> 100000 nM,> 100000 nM,396 nM,94.7 nM,–
N/C(=N\S(=O)(=O)c1ccccc1SCc1cccc2ccccc12)NNc1nc(Cl)nc(Nc2cccc(S(N)(=O)=O)c2)n1,3400 nM,> 100000 nM,> 100000 nM,> 100000 nM,3340 nM,933 nM,–
N/C(=N\S(=O)(=O)c1ccccc1SCc1ccc(C(F)(F)F)cc1)NNc1nc(Cl)nc(Nc2cccc(S(N)(=O)=O)c2)n1,421 nM,> 100000 nM,> 100000 nM,> 100000 nM,536 nM,326 nM,–
N/C(=N\S(=O)(=O)c1ccccc1SCc1ccccc1)NNc1nc(Cl)nc(Nc2ccc(S(N)(=O)=O)cc2)n1,39.4 nM,> 100000 nM,> 100000 nM,> 100000 nM,66.6 nM,83.7 nM,–
